The values below come from patent US8188135B2, “Compounds as cannabinoid receptor ligands” (priority 2008, dated 2012).

Each structure is given as a SMILES string.

In data set [1] the target is T1, rat CB2 (Rattus norvegicus, UniProt Q9QZN9).
T1 sequence (Q9QZN9 1-360): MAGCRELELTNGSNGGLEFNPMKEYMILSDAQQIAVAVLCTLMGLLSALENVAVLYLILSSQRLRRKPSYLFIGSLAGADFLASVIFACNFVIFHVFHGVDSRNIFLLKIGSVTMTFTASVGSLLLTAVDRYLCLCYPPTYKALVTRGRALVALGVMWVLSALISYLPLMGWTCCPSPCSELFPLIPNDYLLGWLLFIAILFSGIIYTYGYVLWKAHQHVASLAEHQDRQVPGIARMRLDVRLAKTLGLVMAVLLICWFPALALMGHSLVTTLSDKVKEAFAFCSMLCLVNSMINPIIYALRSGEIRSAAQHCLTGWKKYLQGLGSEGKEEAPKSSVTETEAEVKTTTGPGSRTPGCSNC
The experiment in a line: rat CB2 cyclase functional assay (HitHunter cAMP). Format: cell-based. The arrangement: expressed in transfected cells; host or cells: HEK. The conditions noted are these: rat CB2 cyclase (EC50, nM), HEK cells, forskolin 18 μM. Summed up:
(§1)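 HEK cells expressing rat CB1 or CB2, 10,000 cells/well, incubated 20 min at 37° C with test ligands plus forskolin (37 μM for CB1, 18 μM for CB2) in DPBS with 0.01% BSA. cAMP read by enzyme-complementation luminescence after lysis; EC50 from sigmoidal dose-response fit.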

Data set [2] is described as follows: pharmacokinetic studies in rats. The conditions noted are these: male, Sprague-Dawley, rat, in vivo; for clearance / half-life: iv, 3 micromole/kg; for bioavailability: po, 10 micromole/kg. As to the method: Male Sprague-Dawley rats, weighing 250-400 g, were obtained from Charles Rivers Laboratories. Pharmacokinetic studies were conducted in three groups of rats; each group contained three animals. All groups were dosed with a solution formulation. The first group of three rats received an intravenous dose, administered under isoflurane anesthetic. The second group received an intraperitoneal dose and the third group received an oral dose, administered by gavage. Sequential blood samples were obtained from a tail vein of each animal for 8-24 hours after dosing. Plasma was separated by centrifugation and stored frozen until analysis.
Half life […] and plasma clearance values are based on intravenous administration (3 micromole/kg).
Half life (t1/2) and plasma clearance values are based on intravenous administration (3 micromole/kg).

For data set [3], the target named is T1, rat CB2. Description: rat CB2 radioligand binding assay ([3H]CP 55,940 competition). Further details: expressed in transfected cells; host or cells: HEK293. The conditions noted are these: rat CB2 (Ki, nM), HEK293 membranes, 0.5 nM [3H]CP 55,940. Summed up:
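Competition binding against 0.5 nM [3H]CP 55,940 (pH 7.4 buffer with 0.5 mg/mL BSA, 30 °C, 45 min), with displacers spanning 0.01 nM–10 μM at five concentrations. Receptor source: stably transfected HEK293 membranes, 20 μg/well. Nonspecific binding defined by 10 μM unlabeled CP 55,940; readout by filtration and counting.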

In data set [4] the target is T2, Rat CB1 (Rattus norvegicus, UniProt P20272).
T2 construct: expressed in transfected cells; host or cells: HEK
T2 sequence (P20272 whole entry): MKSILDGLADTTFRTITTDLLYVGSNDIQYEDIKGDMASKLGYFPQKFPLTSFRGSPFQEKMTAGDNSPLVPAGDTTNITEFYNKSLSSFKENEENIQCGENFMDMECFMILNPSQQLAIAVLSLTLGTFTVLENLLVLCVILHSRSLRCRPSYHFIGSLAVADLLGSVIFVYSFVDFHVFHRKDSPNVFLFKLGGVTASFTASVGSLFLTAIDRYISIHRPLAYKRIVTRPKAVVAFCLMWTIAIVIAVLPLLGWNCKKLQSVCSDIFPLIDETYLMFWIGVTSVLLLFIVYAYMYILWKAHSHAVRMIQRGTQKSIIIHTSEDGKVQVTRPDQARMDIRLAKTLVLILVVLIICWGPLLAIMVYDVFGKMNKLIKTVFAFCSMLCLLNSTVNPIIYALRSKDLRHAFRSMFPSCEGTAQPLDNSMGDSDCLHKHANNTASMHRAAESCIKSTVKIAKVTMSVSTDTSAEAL
The experiment in a line: rat CB1 cyclase functional assay (HitHunter cAMP). Format: cell-based. The conditions noted are these: Rat CB1 cyclase (EC50, nM), HEK cells, forskolin 37 μM. Summed up:
as §1

The target in data set [5] is T3, human CB2 receptors (Homo sapiens, UniProt P34972).
T3 construct: expressed in transfected cells; host or cells: HEK293
T3 sequence (P34972 whole entry): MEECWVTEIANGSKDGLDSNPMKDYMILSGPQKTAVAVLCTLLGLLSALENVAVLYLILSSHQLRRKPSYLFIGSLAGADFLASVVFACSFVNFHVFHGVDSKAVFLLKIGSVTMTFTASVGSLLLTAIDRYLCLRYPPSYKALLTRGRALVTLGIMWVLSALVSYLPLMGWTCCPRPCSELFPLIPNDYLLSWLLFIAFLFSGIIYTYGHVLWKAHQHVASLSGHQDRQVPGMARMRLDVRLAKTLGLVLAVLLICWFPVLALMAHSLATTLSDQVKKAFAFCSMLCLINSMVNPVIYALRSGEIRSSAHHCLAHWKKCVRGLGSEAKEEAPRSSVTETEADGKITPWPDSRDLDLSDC
Description: human CB2 radioligand binding assay ([3H]CP 55,940 competition). The conditions noted are these: human CB2 (Ki, nM), HEK293 membranes, 0.5 nM [3H]CP 55,940. Summed up: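 Displacement of 0.5 nM [3H]CP 55,940 over 0.01 nM-10 μM test compound, measured on human CB2 membranes from stably transfected HEK293 cells. Incubation 90 min at 30 °C in Tris/EDTA/MgCl2/BSA, pH 7.4, then filter-bound radioactivity counted; 10 μM unlabeled CP 55,940 defined nonspecific binding.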

Regarding `CCCCn1/c(=N/C(=O)c2cc(C(F)(F)F)ccc2OCC(C)(C)O)cc(C(C)(C)C)n1C` [Example 81, N-[(3E)-2-butyl-5-tert-butyl-1-methyl-1,2-dihydro-3H-pyrazol-3-ylidene]-2-(2-hydroxy-2-methylpropoxy)-5-(trifluoromethyl)benzamide], the EC50 (in general, the concentration giving half of the maximal effect) in data set [1] is 0.5 nM; in data set [4], 3360 nM. Also, the clearance (in general, the volume of plasma or blood freed of the substance per unit of time) in data set [2] is 3.33 mL/min/kg. Besides, the half-life (usually the time needed for the level to fall by half in the phase considered) in data set [2] is 5 h. The bioavailability (usually dose-corrected exposure relative to a reference, in per cent) in data set [2] worked out at 61%. In addition, the Ki (commonly the equilibrium dissociation constant of an inhibitor or competing ligand from its target) in data set [3] was 25 nM; in data set [5], 44 nM.

With `Cn1c(C(C)(C)C)c/c(=N\C(=O)c2cc(C(F)(F)F)ccc2OCC(C)(C)O)n1C[C@H]1CCCO1` [Example 5, N-{(3E)-5-tert-butyl-1-methyl-2-[(2R)-tetrahydrofuran-2-ylmethyl]-1,2-dihydro-3H-pyrazol-3-ylidene}-2-(2-hydroxy-2-methylpropoxy)-5-(trifluoromethyl)benzamide], the EC50 in data set [1] is 0.22 nM; in data set [4], 7690 nM. In data set [2], the clearance was 18.3 mL/min/kg. The same compound had a half-life in data set [2] of 2.1 h. The bioavailability in data set [2] stood at 37%. For the same compound, the Ki in data set [3] stood at 5.5 nM; in data set [5] it was 10 nM.

As for `Cn1c(C2(C)CC2)c/c(=N\C(=O)c2cc(C(F)(F)F)ccc2OCCC(C)(C)O)n1C[C@H]1CCCO1` [Example 68, 2-(3-hydroxy-3-methylbutoxy)-N-{(3E)-1-methyl-5-(1-methylcyclopropyl)-2-[(2 R)-tetrahydrofuran-2-ylmethyl]-1,2-dihydro-3H-pyrazol-3-ylidene}-5-(trifluoromethyl)benzamide], the EC50 in data set [1] came out at 0.2 nM. In data set [2], the clearance was 40 mL/min/kg, the half-life is 2.2 h and the bioavailability was 25%. For the same compound, in data set [3], the Ki came out at 13 nM. In addition, in data set [4], the EC50 was over 27000 nM. In data set [5], the Ki came to 77 nM.

With `Cn1c(C(C)(C)C)c/c(=N\C(=O)c2cc(C(F)(F)F)ccc2OCCC(C)(C)O)n1C[C@H]1CCCO1` [Example 20, N-{(3E)-5-tert-butyl-1-methyl-2-[(2R)-tetrahydrofuran-2-ylmethyl]-1,2-dihydro-3H-pyrazol-3-ylidene}-2-(3-hydroxy-3-methylbutoxy)-5-(trifluoromethyl)benzamide], the half-maximal effective concentration (EC50) was 0.57 nM in data set [1] and 6850 nM in data set [4]. Also, the clearance in data set [2] was 13.3 mL/min/kg. In addition, in data set [2], the half-life was 3.9 h. This compound also returned a bioavailability in data set [2] of 27%. For the same compound, the results for the Ki in data set [3] and in data set [5] were 11 nM and 35 nM, respectively.

For `Cn1c(C(C)(C)C)c/c(=N\C(=O)c2cc(C#N)ccc2OCC(C)(C)O)n1CC1CCCC1` [Example 127, N-[(3E)-5-tert-butyl-2-(cyclopentylmethyl)-1-methyl-1,2-dihydro-3H-pyrazol-3-ylidene]-5-cyano-2-(2-hydroxy-2-methylpropoxy)benzamide], the EC50 in data set [1] came out at 1.78 nM. In data set [2], this compound gave a clearance of 46.7 mL/min/kg, a half-life of 0.8 h and a bioavailability of 60%. For the same compound, the Ki in data set [3] worked out at 12 nM. The half-maximal effective concentration (EC50) in data set [4] is over 27000 nM. This compound showed an inhibitory constant (Ki) in data set [5] of 47 nM.

`Cn1c(C(C)(C)C)c/c(=N\C(=O)c2cc(C(F)(F)F)ccc2OCC(C)(C)O)n1CC1CCC1` [Example 86, N-[(3E)-5-tert-butyl-2-(cyclobutylmethyl)-1-methyl-1,2-dihydro-3H-pyrazol-3-ylidene]-2-(2-hydroxy-2-methylpropoxy)-5-(trifluoromethyl)benzamide]: in data set [1], the EC50 is 0.23 nM. In data set [2], this compound had a clearance of 5 mL/min/kg, a half-life of 5.4 h and a bioavailability of 50%. Further, in data set [3], the affinity, expressed as Ki, was 4.3 nM. Besides, the EC50 in data set [4] came out at 4020 nM. In data set [5], this compound displayed a Ki of 8.3 nM.

For the compound `Cn1c(C(C)(C)C)c/c(=N\C(=O)c2cc(C(F)(F)F)ccc2OCC(C)(C)O)n1CCC(F)(F)F` [Example 87, N-[(3E)-5-tert-butyl-1-methyl-2-(3,3,3-trifluoropropyl)-1,2-dihydro-3H-pyrazol-3-ylidene]-2-(2-hydroxy-2-methylpropoxy)-5-(trifluoromethyl)benzamide], the EC50 in data set [1] stood at 0.25 nM. In data set [2], this compound gave a clearance of 5 mL/min/kg, a half-life of 3.2 h and a bioavailability of 64%. In data set [3], affinity was put at a Ki of 7.6 nM. For the same compound, the EC50 in data set [4] stood at 3110 nM. Also, affinity in data set [5] was put at a Ki of 18 nM.

For the compound `Cn1c(C(C)(C)C)c/c(=N\C(=O)c2cc(C#N)ccc2OCC(C)(C)O)n1C[C@H]1CCCO1` [Example 90, N-{(3E)-5-tert-butyl-1-methyl-2-[(2R)-tetrahydrofuran-2-ylmethyl]-1,2-dihydro-3 H-pyrazol-3-ylidene}-5-cyano-2-(2-hydroxy-2-methylpropoxy)benzamide], the EC50 in data set [1] is 1.8 nM. Also, in data set [2], the clearance was 41.7 mL/min/kg, the half-life was 2.1 h and the bioavailability came to 28%. Moreover, in data set [3], the affinity, expressed as Ki, was 11 nM. In addition, in data set [4], the concentration for a half-maximal effect (EC50) was over 27000 nM. The compound further registered a Ki in data set [5] of 41 nM.

For the compound `Cn1c(C(C)(C)C)c/c(=N\C(=O)c2cc(Cl)ccc2OCC(C)(C)O)n1C[C@H]1CCCO1` [Example 89, N-{(3E)-5-tert-butyl-1-methyl-2-[(2R)-tetrahydrofuran-2-ylmethyl]-1,2-dihydro-3 H-pyrazol-3-ylidene}-5-chloro-2-(2-hydroxy-2-methylpropoxy)benzamide], in data set [1], the EC50 was 0.61 nM. In data set [2], this compound showed a clearance of 16.7 mL/min/kg, a half-life of 1.6 h and a bioavailability of 37%. Moreover, in data set [3], the Ki is 7.6 nM. For the same compound, the EC50 in data set [4] was found to be 2320 nM. The same compound displayed a Ki in data set [5] of 19 nM.

For the compound `Cn1c(C(C)(C)C)c/c(=N\C(=O)c2cc(C(F)(F)F)ccc2OCCC(C)(C)O)n1CC1CC1` [Example 51, N-[(3E)-5-tert-butyl-2-(cyclopropylmethyl)-1-methyl-1,2-dihydro-3H-pyrazol-3-ylidene]-2-(3-hydroxy-3-methylbutoxy)-5-(trifluoromethyl)benzamide], the EC50 in data set [1] was 0.46 nM. In addition, in data set [2], the clearance was 8.33 mL/min/kg, the half-life was 3.2 h and the bioavailability was 52%. In data set [3], this compound displayed a Ki of 15 nM. Further, the 50% effective concentration (EC50) in data set [4] is over 27000 nM. The compound further gave a Ki in data set [5] of 80 nM.

On to `Cn1c(C2(C)CC2)c/c(=N\C(=O)c2cc(C(F)(F)F)ccc2OCC(C)(C)O)n1C[C@H]1CCCO1` [Example 70, 2-(2-hydroxy-2-methylpropoxy)-N-{(3E)-1-methyl-5-(1-methylcyclopropyl)-2-[(2 R)-tetrahydrofuran-2-ylmethyl]-1,2-dihydro-3H-pyrazol-3-ylidene}-5-(trifluoromethyl)benzamide], for which the EC50 in data set [1] turned out to be 0.47 nM. In data set [2], this compound showed a clearance of 30 mL/min/kg, a half-life of 2.3 h and a bioavailability of 46%. Affinity in data set [3] was put at a Ki of 4.4 nM. Moreover, in data set [4], the half-maximal effective concentration (EC50) is over 27000 nM. This compound registered a Ki in data set [5] of 27 nM.

`CC1CCC(COc2ccc(C(F)(F)F)cc2C(=O)N=c2cc(C(C)(C)C)n(C)n2CC2CCCO2)O1` (single isomer, unassigned) [Example 37]: the values for the EC50 in data set [1] and in data set [4] were 0.45 nM and 8590 nM, respectively. For the same compound, the Ki in data set [3] worked out at 16 nM; in data set [5], 57 nM.

As to `CSCCOc1ccc(C(F)(F)F)cc1C(=O)/N=c1\cc(C(C)(C)C)n(C)n1C[C@H]1CCCO1` [Example 57], the EC50 in data set [1] was 1.4 nM; in data set [4] it was 7530 nM. Also, the Ki worked out at 1.9 nM in data set [3] and 11 nM in data set [5].
